Laboratory results published in PMC9329436, “Optimization of the 4-anilinoquin(az)oline scaffold as epidermal growth factor receptor (EGFR) inhibitors for chordoma utilizing a toxicology profiling assay platform” (Scientific Reports, 2022).
Like-named read-outs stand apart in the source and are kept apart here.

Tests used:
Format in all cases: biochemical
[1] = molecular target: 320 wild-type protein kinases (Homo sapiens, UniProt Q9H0K1); conditions: kinase SIK2, singlicate
Text: (§1) Table S4. Profiling of two compounds at two concentrations against 320 wild-type protein kinases; singlicate measurement; Residual activities (% of control).

[2] = molecular target: 320 wild-type protein kinases (Homo sapiens, UniProt Q9P289); conditions: singlicate
Text: as §1

[3] = molecular target: 320 wild-type protein kinases (Homo sapiens, UniProt Q9Y6M4); conditions: singlicate
Text: as §1

[4] = molecular target: 320 wild-type protein kinases (Homo sapiens, UniProt P49674); conditions: CK1-epsilon, singlicate
Text: as §1

[5] = molecular target: 320 wild-type protein kinases (Homo sapiens, UniProt P31749); conditions: singlicate
Text: as §1

[6] = molecular target: 320 wild-type protein kinases (Homo sapiens, UniProt Q15349); conditions: kinase RPS6KA2, singlicate
Text: as §1

[7] = molecular target: 320 wild-type protein kinases (Homo sapiens, UniProt P41240); conditions: CSK, singlicate
Text: as §1

[8] = molecular target: T1, 320 wild-type protein kinases (Homo sapiens, UniProt O00418); conditions: EEF2K, singlicate
T1 sequence (O00418 1-725): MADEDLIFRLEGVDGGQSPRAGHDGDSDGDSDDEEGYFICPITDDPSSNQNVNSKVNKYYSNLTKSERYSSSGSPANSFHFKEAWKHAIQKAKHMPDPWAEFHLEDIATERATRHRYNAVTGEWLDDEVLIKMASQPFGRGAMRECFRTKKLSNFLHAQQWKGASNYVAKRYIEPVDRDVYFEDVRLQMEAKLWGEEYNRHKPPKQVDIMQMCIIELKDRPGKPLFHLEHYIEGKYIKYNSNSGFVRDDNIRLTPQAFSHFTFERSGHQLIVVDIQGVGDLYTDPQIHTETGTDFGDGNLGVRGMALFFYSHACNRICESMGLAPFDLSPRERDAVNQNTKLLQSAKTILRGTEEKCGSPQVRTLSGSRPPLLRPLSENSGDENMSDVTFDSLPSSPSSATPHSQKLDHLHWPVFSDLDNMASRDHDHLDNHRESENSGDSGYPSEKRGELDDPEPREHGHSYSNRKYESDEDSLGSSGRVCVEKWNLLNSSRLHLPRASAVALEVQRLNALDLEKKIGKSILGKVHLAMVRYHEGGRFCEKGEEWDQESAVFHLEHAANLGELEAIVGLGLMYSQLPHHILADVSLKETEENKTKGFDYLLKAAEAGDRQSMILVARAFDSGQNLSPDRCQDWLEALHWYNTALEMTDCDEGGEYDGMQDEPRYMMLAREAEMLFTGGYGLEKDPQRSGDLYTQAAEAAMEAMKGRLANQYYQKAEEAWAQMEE
Text: as §1

[9] = molecular target: 320 wild-type protein kinases (Homo sapiens, UniProt P51451); conditions: BLK, singlicate
Text: as §1

[10] = molecular target: T2, 320 wild-type protein kinases (Homo sapiens, UniProt O94806); conditions: PKC-nu, singlicate
T2 sequence (O94806 1-890): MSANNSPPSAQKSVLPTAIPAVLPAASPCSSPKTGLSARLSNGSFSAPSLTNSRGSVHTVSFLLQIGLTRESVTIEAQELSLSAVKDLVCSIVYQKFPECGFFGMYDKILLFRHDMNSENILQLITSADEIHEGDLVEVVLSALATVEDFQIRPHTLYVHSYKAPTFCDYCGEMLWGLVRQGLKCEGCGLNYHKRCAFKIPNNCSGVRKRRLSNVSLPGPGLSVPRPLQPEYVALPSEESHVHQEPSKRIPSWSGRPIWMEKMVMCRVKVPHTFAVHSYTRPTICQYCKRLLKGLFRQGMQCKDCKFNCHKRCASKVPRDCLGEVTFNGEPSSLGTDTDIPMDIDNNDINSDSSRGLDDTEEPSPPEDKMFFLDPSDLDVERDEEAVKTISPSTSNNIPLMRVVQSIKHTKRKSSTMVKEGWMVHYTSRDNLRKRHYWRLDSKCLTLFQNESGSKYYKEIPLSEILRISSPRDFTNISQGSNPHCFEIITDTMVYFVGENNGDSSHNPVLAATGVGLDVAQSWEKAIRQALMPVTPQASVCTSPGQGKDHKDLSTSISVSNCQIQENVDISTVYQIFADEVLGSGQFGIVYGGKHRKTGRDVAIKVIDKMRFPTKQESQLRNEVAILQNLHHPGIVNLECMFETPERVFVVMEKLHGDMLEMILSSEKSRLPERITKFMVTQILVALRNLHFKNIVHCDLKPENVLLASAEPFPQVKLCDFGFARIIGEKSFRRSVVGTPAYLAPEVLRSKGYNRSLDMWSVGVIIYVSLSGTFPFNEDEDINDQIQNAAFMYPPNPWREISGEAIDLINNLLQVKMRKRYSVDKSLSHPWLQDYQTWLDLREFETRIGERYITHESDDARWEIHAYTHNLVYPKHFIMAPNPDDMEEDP
Text: as §1

[11] = molecular target: 320 wild-type protein kinases (Homo sapiens, UniProt Q14680); conditions: MELK, singlicate
Text: as §1

[12] = molecular target: 320 wild-type protein kinases (Homo sapiens, UniProt P07947); conditions: kinase YES, singlicate
Text: as §1

[13] = molecular target: 320 wild-type protein kinases (Homo sapiens, UniProt P05771); conditions: singlicate
Text: as §1

[14] = molecular target: 320 wild-type protein kinases (Homo sapiens, UniProt Q9Y6E0); conditions: singlicate
Text: as §1

Sequence of 320 wild-type protein kinases (Homo sapiens, UniProt Q9Y6E0) (Q9Y6E0 whole entry): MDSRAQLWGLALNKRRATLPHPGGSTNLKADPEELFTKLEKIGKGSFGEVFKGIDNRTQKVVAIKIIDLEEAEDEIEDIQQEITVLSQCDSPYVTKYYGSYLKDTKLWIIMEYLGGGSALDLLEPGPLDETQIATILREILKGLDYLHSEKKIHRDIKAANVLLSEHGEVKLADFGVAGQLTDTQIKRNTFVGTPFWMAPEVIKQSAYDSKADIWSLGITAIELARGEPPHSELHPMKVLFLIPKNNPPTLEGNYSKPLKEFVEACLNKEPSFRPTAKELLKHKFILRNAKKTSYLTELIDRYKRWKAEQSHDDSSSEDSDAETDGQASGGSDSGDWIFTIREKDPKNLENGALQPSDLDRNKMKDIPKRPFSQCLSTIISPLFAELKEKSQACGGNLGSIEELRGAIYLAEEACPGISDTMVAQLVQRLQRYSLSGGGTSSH
Sequence of 320 wild-type protein kinases (Homo sapiens, UniProt Q9H0K1) (Q9H0K1 whole entry): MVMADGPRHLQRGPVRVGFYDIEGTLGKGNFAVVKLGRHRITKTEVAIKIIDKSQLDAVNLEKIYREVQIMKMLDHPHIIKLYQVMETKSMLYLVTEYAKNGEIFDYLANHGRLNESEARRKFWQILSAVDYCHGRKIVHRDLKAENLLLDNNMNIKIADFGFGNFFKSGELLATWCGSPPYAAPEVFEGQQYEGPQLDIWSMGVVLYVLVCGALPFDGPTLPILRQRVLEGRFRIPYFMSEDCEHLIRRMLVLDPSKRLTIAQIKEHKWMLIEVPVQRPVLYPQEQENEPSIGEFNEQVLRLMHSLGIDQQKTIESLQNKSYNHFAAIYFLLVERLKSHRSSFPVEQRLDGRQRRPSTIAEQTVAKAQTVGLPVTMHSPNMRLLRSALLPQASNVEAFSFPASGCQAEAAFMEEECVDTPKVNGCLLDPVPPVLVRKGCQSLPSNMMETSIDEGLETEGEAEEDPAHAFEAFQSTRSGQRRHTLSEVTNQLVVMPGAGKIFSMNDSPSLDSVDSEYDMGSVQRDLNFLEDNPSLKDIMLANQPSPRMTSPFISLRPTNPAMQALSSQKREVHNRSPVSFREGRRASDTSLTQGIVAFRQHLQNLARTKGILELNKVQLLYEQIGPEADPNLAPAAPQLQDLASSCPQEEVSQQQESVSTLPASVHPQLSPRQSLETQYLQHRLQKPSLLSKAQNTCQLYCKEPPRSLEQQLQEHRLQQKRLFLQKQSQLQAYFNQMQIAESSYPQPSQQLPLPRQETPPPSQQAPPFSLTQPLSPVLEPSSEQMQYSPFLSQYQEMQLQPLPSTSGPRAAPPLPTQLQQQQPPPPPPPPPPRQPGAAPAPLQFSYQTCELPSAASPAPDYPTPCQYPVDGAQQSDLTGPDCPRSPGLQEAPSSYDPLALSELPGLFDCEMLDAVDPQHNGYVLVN
Sequence of 320 wild-type protein kinases (Homo sapiens, UniProt Q9Y6M4) (Q9Y6M4 whole entry): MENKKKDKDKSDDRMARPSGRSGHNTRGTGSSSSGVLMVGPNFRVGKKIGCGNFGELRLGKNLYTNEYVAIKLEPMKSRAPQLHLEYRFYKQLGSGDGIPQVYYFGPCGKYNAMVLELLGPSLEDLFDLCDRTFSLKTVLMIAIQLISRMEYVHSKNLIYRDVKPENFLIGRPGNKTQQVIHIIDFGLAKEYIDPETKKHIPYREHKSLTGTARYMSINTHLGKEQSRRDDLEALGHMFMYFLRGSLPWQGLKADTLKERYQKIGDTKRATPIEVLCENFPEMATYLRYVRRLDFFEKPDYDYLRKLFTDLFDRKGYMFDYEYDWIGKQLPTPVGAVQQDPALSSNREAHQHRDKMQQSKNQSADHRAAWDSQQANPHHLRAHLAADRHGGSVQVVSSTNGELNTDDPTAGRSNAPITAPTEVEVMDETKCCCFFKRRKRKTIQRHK
Sequence of 320 wild-type protein kinases (Homo sapiens, UniProt P05771) (P05771 whole entry): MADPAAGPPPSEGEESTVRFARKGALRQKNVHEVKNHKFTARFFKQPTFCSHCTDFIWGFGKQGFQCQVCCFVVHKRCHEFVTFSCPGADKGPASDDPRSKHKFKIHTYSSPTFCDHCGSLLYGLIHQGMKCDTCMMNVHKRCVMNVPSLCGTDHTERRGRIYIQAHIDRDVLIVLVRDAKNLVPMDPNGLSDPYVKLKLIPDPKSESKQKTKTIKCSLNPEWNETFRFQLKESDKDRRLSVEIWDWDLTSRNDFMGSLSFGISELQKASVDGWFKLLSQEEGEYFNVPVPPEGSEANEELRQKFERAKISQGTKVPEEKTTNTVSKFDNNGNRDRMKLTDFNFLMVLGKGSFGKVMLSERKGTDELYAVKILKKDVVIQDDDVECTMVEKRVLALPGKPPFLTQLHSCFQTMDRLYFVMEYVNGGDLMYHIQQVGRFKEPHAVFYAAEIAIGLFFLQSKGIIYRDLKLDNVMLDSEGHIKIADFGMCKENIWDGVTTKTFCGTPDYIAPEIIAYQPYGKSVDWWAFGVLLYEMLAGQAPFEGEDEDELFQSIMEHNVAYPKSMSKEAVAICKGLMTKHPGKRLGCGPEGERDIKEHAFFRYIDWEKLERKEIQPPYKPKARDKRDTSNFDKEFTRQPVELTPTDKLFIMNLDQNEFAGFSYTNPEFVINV
Sequence of 320 wild-type protein kinases (Homo sapiens, UniProt Q14680) (Q14680 whole entry): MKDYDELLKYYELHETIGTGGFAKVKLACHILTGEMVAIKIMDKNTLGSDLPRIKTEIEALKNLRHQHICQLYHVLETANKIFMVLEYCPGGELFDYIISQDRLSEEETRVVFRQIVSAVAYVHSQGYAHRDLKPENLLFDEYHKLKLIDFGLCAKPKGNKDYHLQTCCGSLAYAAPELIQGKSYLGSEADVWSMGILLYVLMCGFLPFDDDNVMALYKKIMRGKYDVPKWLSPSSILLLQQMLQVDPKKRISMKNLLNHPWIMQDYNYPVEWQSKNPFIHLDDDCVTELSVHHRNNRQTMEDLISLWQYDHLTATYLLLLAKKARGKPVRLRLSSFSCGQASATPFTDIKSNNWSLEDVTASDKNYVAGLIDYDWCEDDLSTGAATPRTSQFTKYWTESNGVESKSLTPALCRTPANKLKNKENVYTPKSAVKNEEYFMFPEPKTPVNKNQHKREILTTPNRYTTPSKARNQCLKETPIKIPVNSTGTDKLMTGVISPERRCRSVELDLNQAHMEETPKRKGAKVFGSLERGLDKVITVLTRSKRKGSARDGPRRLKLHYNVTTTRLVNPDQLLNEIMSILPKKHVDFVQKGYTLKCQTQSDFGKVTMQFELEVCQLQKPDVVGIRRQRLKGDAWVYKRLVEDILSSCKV
Sequence of 320 wild-type protein kinases (Homo sapiens, UniProt P07947) (P07947 whole entry): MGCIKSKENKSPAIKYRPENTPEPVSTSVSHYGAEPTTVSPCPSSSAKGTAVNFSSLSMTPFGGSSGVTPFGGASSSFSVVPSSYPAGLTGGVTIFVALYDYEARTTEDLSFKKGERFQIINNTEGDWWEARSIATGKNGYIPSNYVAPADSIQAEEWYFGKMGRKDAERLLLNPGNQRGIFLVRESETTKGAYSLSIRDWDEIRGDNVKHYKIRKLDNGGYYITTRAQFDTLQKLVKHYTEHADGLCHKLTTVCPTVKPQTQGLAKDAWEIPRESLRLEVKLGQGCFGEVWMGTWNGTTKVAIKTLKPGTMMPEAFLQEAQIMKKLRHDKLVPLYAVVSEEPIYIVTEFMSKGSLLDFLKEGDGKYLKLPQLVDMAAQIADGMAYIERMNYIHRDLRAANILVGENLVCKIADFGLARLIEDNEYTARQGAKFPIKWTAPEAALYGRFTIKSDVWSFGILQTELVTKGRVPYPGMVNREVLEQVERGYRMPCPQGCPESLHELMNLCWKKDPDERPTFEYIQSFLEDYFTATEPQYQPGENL
Sequence of 320 wild-type protein kinases (Homo sapiens, UniProt Q15349) (Q15349 whole entry): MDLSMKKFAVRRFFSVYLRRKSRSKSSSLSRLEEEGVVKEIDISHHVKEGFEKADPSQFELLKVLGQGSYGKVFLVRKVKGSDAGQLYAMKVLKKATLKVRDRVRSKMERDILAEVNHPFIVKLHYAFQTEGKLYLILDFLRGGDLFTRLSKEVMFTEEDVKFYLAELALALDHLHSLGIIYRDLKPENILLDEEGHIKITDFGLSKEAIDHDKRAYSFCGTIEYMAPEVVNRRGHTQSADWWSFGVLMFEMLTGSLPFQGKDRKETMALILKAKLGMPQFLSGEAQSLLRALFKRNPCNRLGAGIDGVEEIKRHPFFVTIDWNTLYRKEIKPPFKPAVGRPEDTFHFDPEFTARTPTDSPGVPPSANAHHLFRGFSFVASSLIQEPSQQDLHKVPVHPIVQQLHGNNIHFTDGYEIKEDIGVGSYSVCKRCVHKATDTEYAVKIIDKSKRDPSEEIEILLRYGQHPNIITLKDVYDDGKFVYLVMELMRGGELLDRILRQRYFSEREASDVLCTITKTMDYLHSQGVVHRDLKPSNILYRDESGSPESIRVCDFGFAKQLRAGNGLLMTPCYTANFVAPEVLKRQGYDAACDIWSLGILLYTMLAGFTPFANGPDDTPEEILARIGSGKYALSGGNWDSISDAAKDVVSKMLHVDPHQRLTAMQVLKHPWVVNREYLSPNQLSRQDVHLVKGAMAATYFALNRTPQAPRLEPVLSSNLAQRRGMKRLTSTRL
Sequence of 320 wild-type protein kinases (Homo sapiens, UniProt P51451) (P51451 whole entry): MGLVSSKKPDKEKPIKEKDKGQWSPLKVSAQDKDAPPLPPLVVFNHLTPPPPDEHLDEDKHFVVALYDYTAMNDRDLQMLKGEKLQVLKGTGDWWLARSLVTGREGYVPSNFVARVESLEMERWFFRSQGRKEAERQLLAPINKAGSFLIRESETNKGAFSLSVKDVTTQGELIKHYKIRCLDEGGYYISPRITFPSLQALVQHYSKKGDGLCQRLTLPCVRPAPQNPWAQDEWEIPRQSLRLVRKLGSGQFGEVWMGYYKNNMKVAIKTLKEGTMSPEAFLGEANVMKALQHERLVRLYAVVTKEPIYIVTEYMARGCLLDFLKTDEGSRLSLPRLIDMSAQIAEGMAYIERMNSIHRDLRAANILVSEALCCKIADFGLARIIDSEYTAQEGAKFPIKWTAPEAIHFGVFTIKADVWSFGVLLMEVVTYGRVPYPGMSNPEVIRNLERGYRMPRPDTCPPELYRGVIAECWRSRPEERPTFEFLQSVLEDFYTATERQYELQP

| SMILES | Residual activity, SIK2 ([1]; assay conc. 1.0E-06 M) | Residual activity, SIK2 ([1]; assay conc. 1.0E-07 M) | Residual activity ([2]; MST4, 1.0E-06 M) | Residual activity ([2]; MST4, 1.0E-07 M) | Residual activity ([3]; CK1-gamma3, 1.0E-06 M) | Residual activity ([3]; CK1-gamma3, 1.0E-07 M) | Residual activity ([4]; 1.0E-06 M) | Residual activity ([4]; 1.0E-07 M) | Residual activity ([5]; AKT1 aa106-480, 1.0E-06 M) | Residual activity ([5]; AKT1 aa106-480, 1.0E-07 M) | Residual activity, RPS6KA2 ([6]; assay conc. 1.0E-06 M) | Residual activity, RPS6KA2 ([6]; assay conc. 1.0E-07 M) | Residual activity ([7]; 1.0E-06 M) | Residual activity ([7]; 1.0E-07 M) | Residual activity ([8]; 1.0E-06 M) | Residual activity ([8]; 1.0E-07 M) | Residual activity ([9]; 1.0E-06 M) | Residual activity ([9]; 1.0E-07 M) | Residual activity ([10]; 1.0E-06 M) | Residual activity ([10]; 1.0E-07 M) | also measured |
| --- | --- | --- | --- | --- | --- | --- | --- | --- | --- | --- | --- | --- | --- | --- | --- | --- | --- | --- | --- | --- | --- |
| C#Cc1cc(Nc2ncnc3cc(OC)c(OC)cc23)ccc1Cl [Compound 45] | 67 % of control | 97 % of control | 97 % of control | 92 % of control | 123 % of control | 116 % of control | 120 % of control | 124 % of control | 101 % of control | 100 % of control | 86 % of control | 100 % of control | 92 % of control | 106 % of control | 83 % of control | 91 % of control | 62 % of control | 99 % of control | 84 % of control | 99 % of control | Residual activity ([11]; 1.0E-06 M): 101 % of control; Residual activity ([11]; 1.0E-07 M): 109 % of control; Residual activity, YES ([12]; assay conc. 1.0E-06 M): 77 % of control; Residual activity, YES ([12]; assay conc. 1.0E-07 M): 100 % of control; Residual activity ([13]; PKC-beta1, 1.0E-06 M): 88 % of control; Residual activity ([13]; PKC-beta1, 1.0E-07 M): 95 % of control; Residual activity ([14]; MST3, 1.0E-06 M): 94 % of control; Residual activity ([14]; MST3, 1.0E-07 M): 93 % of control |
| C#Cc1cc(Nc2ncnc3cc(I)ccc23)ccc1Cl [Compound 41] | 83 % of control | 92 % of control | 89 % of control | 101 % of control | 118 % of control | 121 % of control | 118 % of control | 124 % of control | 94 % of control | 96 % of control | 94 % of control | 97 % of control | 92 % of control | 110 % of control | 87 % of control | 94 % of control | 93 % of control | 99 % of control | 86 % of control | 87 % of control | Residual activity ([11]; 1.0E-06 M): 92 % of control; Residual activity ([11]; 1.0E-07 M): 101 % of control; Residual activity, YES ([12]; assay conc. 1.0E-06 M): 83 % of control; Residual activity, YES ([12]; assay conc. 1.0E-07 M): 101 % of control; Residual activity ([13]; PKC-beta1, 1.0E-06 M): 96 % of control; Residual activity ([13]; PKC-beta1, 1.0E-07 M): 110 % of control; Residual activity ([14]; MST3, 1.0E-06 M): 104 % of control; Residual activity ([14]; MST3, 1.0E-07 M): 116 % of control |
